# Assay results published in US20260125371A1, “METHOD FOR INHIBITING CLOSTRIDIOIDES DIFFICILE SPORE GERMINATION” (UNIVERSITY OF NOTRE DAME DU LAC, priority 2022, published 2026).
# Like-named read-outs stand apart in the source and are kept apart here.
# Assays:
# S. pyogenes ATCC 49399 = assay: MIC against S. pyogenes; assay type: cell-based; details: Streptococcus pyogenes, ATCC49399
# [1] = system: C. difficile ATCC 43255 vegetative cells; assay: Mode of action by scanning electron microscopy (SEM); details: 8× MIC for 24 h
# E. faecalis = assay: MIC against E. faecalis strains; assay type: cell-based; details: Enterococcus faecalis, E. faecalis 99 (Van R); read-out: MIC
# [2] = system: Clostridioides difficile infection; details: CDI patients; cited from earlier work
# C. difficile strains = details: cited from earlier work
# [3] = C. difficile strains of Table 4
smiles,measurement,setting,value
"O=[N+]([O-])c1cnc(-c2nc(-c3ccc(OC4CCCC4)cc3)no2)[nH]1 [Compound 57, 3-(4-(Cyclopentyloxy)phenyl)-5-(4-nitro-1H-imidazol-2-yl)-1,2,4-oxadiazole]",MIC,S. pyogenes ATCC 49399,> 128 µg/mL
same,effect on vegetative cells by SEM,[1],damage to the cell wall
same,MIC,E. faecalis,128 µg/mL
"CCc1c(Cl)c(O)c(Cl)c(O)c1C(=O)O[C@H]1[C@H](O)[C@H](OC)[C@H](OC/C2=C\C=C\C[C@H](O)/C(C)=C/[C@H](CC)[C@@H](O[C@@H]3OC(C)(C)[C@@H](OC(=O)C(C)C)[C@H](O)[C@@H]3O)/C(C)=C/C(C)=C/C[C@@H]([C@@H](C)O)OC2=O)O[C@@H]1C [FDX, fidaxomicin]",recurrence of infection,[2],15%
same,IMIC50 (101 strains),C. difficile strains; 101 C. difficile strains,0.06 µg/mL
same,MIC90 (101 strains),C. difficile strains; 101 C. difficile strains,0.25 µg/mL
same,MIC,"C. difficile strains; C. difficile 23828, resistant to FDX",>8 µg/mL
same,MIC,"C. difficile strains; C. difficile 24531, resistant to VAN",0.01 µg/mL
same,MIC,"C. difficile strains; C. difficile 26675, resistant to MTZ",4 µg/mL
same,MIC,C. difficile strains; C. difficile BAA-1803,1 µg/mL
same,MIC,C. difficile strains; C. difficile BAA-1870,0.25 µg/mL
same,MIC,C. difficile strains; C. difficile NR49292,0.5 µg/mL
same,MIC,C. difficile strains; C. difficile NR49294,0.01 µg/mL
same,MIC,C. difficile strains; C. difficile NR49302,0.03 µg/mL
same,MIC,C. difficile strains; C. difficile NR49305,0.01 µg/mL
same,MIC,C. difficile strains; C. difficile NR49310,≤0.01 µg/mL
same,MIC,C. difficile strains; C. difficile NR49318,0.125 µg/mL
same,MIC50,C. difficile strains; [3],0.06 µg/mL
same,MIC90,C. difficile strains; [3],0.25 µg/mL
same,MIC,C. difficile strains; strain ATCC43598,0.01 µg/mL
same,MIC,C. difficile strains; strain BAA-1801,0.125 µg/mL
same,MIC,C. difficile strains; strain BAA-1803,1 µg/mL
same,MIC,C. difficile strains; strain BAA-1804,0.125 µg/mL
same,MIC,C. difficile strains; strain BAA-1812,0.015 µg/mL
same,MIC,C. difficile strains; strain BAA-1814,0.03 µg/mL
same,MIC,C. difficile strains; strain BAA-1870,0.25 µg/mL
same,MIC,C. difficile strains; strain HM-88,0.03 µg/mL
same,MIC,C. difficile strains; strain HM-89,0.03 µg/mL
same,MIC,C. difficile strains; strain HM-745,0.125 µg/mL
same,MIC,C. difficile strains; strain HM-746,≤0.03 µg/mL
same,MIC,C. difficile strains; strain HM-747,0.06 µg/mL
same,MIC,C. difficile strains; strain NR49292,0.5 µg/mL
same,MIC,C. difficile strains; strain NR49294,0.01 µg/mL
same,MIC,C. difficile strains; strain NR49302,0.03 µg/mL
same,MIC,C. difficile strains; strain NR49305,0.01 µg/mL
same,MIC,C. difficile strains; strain NR49310,≤0.01 µg/mL
same,MIC,C. difficile strains; strain NR49318,0.125 µg/mL
same,MIC,C. difficile strains; strain NR-13427,0.03 µg/mL
same,MIC,C. difficile strains; strain NR-13428,≤0.03 µg/mL
same,MIC,C. difficile strains; strain NR-13429,0.25 µg/mL
same,MIC,C. difficile strains; strain NR-13430,≤0.03 µg/mL
same,MIC,C. difficile strains; strain NR-13431,0.125 µg/mL
same,MIC,C. difficile strains; strain NR-13433,0.125 µg/mL
same,MIC,C. difficile strains; strain NR-13434,0.06 µg/mL
same,MIC,C. difficile strains; strain NR-13435,≤0.03 µg/mL
same,MIC,C. difficile strains; strain NR-13436,0.125 µg/mL
same,MIC,C. difficile strains; strain NR-13437,0.25 µg/mL
same,MIC,C. difficile strains; strain NR-13438,0.06 µg/mL
same,MIC,C. difficile strains; strain NR-13553,≤0.03 µg/mL
same,MIC,C. difficile strains; strain NR-32882,0.06 µg/mL
same,MIC,C. difficile strains; strain NR-32883,0.125 µg/mL
same,MIC,C. difficile strains; strain NR-32884,0.03 µg/mL
same,MIC,C. difficile strains; strain NR-32885,0.25 µg/mL
same,MIC,C. difficile strains; strain NR-32886,0.03 µg/mL
same,MIC,C. difficile strains; strain NR-32887,0.125 µg/mL
same,MIC,C. difficile strains; strain NR-32888,0.03 µg/mL
same,MIC,C. difficile strains; strain NR-32889,0.25 µg/mL
same,MIC,C. difficile strains; strain NR-32890,0.06 µg/mL
same,MIC,C. difficile strains; strain NR-32891,0.03 µg/mL
same,MIC,C. difficile strains; strain NR-32892,0.03 µg/mL
same,MIC,C. difficile strains; strain NR-32895,0.03 µg/mL
same,MIC,C. difficile strains; strain NR-32896,0.03 µg/mL
same,MIC,C. difficile strains; strain NR-32897,0.03 µg/mL
same,MIC,C. difficile strains; strain NR-32900,0.03 µg/mL
same,MIC,C. difficile strains; strain NR-32903,0.03 µg/mL
same,MIC,C. difficile strains; strain NR-32904,0.03 µg/mL
same,MIC,C. difficile strains; strain NR-49277,0.06 µg/mL
same,MIC,C. difficile strains; strain NR-49278,0.25 µg/mL
same,MIC,C. difficile strains; strain NR-49279,0.25 µg/mL
same,MIC,C. difficile strains; strain NR-49280,0.125 µg/mL
same,MIC,C. difficile strains; strain NR-49281,0.25 µg/mL
same,MIC,C. difficile strains; strain NR-49282,0.06 µg/mL
same,MIC,C. difficile strains; strain NR-49283,0.03 µg/mL
same,MIC,C. difficile strains; strain NR-49284,0.06 µg/mL
same,MIC,C. difficile strains; strain NR-49285,0.06 µg/mL
same,MIC,C. difficile strains; strain NR-49286,0.25 µg/mL
same,MIC,C. difficile strains; strain NR-49287,0.25 µg/mL
same,MIC,C. difficile strains; strain NR-49288,0.25 µg/mL
same,MIC,C. difficile strains; strain NR-49289,0.03 µg/mL
same,MIC,C. difficile strains; strain NR-49290,0.06 µg/mL
same,MIC,C. difficile strains; strain NR-49291,0.25 µg/mL
same,MIC,C. difficile strains; strain NR-49293,≤0.03 µg/mL
same,MIC,C. difficile strains; strain NR-49295,≤0.03 µg/mL
same,MIC,C. difficile strains; strain NR-49296,≤0.03 µg/mL
same,MIC,C. difficile strains; strain NR-49297,0.0125 µg/mL
same,MIC,C. difficile strains; strain NR-49298,0.125 µg/mL
same,MIC,C. difficile strains; strain NR-49299,0.125 µg/mL
same,MIC,C. difficile strains; strain NR-49300,0.03 µg/mL
same,MIC,C. difficile strains; strain NR-49301,0.03 µg/mL
same,MIC,C. difficile strains; strain NR-49303,0.03 µg/mL
same,MIC,C. difficile strains; strain NR-49304,0.06 µg/mL
same,MIC,C. difficile strains; strain NR-49306,0.03 µg/mL
same,MIC,C. difficile strains; strain NR-49307,0.03 µg/mL
same,MIC,C. difficile strains; strain NR-49308,0.125 µg/mL
same,MIC,C. difficile strains; strain NR-49309,0.03 µg/mL
same,MIC,C. difficile strains; strain NR-49311,0.03 µg/mL
same,MIC,C. difficile strains; strain NR-49312,0.125 µg/mL
same,MIC,C. difficile strains; strain NR-49313,0.03 µg/mL
same,MIC,C. difficile strains; strain NR-49314,0.25 µg/mL
same,MIC,C. difficile strains; strain NR-49315,0.06 µg/mL
same,MIC,C. difficile strains; strain NR-49316,0.125 µg/mL
same,MIC,C. difficile strains; strain NR-49317,0.06 µg/mL
same,MIC,C. difficile strains; strain NR-49319,0.125 µg/mL
same,MIC,C. difficile strains; strain NR-49320,0.125 µg/mL
same,MIC,C. difficile strains; strain NR-49321,0.125 µg/mL
same,MIC,C. difficile strains; strain NR-49323,≤0.03 µg/mL
same,MIC,C. difficile strains; strain NR-49324,0.06 µg/mL
same,MIC,C. difficile strains; strain NR-49325,0.03 µg/mL
same,MIC,C. difficile strains; strain NR-49326,0.03 µg/mL
same,MIC,C. difficile strains; strain NR-49327,0.03 µg/mL
same,MIC,C. difficile strains; strain NR-49328,0.03 µg/mL
same,MIC,C. difficile strains; strain NR-49329,0.03 µg/mL
same,MIC,C. difficile strains; strain RMA23691,4 µg/mL
same,MIC,C. difficile strains; strain RMA23828,>8 µg/mL
same,MIC,C. difficile strains; strain RMA24531,0.01 µg/mL
same,MIC,C. difficile strains; strain RMA24923,0.06 µg/mL
same,MIC,C. difficile strains; strain RMA26675,4 µg/mL
same,MIC,C. difficile strains; strain RMA27081,>8 µg/mL
same,MIC,C. difficile strains; strain RMA27173,0.01 µg/mL
